US9175282B2, “Cellobiose 2-epimerase, its preparation and uses” (HAYASHIBARA CO., LTD., priority 2009, dated 2015)

Tests used:
[1] = test system: recombinant cellobiose 2-epimerase; assay: Substrate specificity of cellobiose 2-epimerase by TLC; format: biochemical, Caldicellulosiruptor saccharolyticus ATCC43494; design: key to Action: −: No product is detected; ±: Some products are slightly detected; +: Some products are detected; ++: Some products are clearly detected; conditions: for Action: 2% (w/w) substrate, MOPS buffer pH 8.0, 500 units/g-substrate, 60° C., 24 hours, product spot on TLC; for Action of the enzyme on the saccharide: summary of Table 3
Description: Substrate specificity of the enzyme was investigated by allowing the purified preparation of the recombinant cellobiose 2-epimerase, obtained by the method of Experiment 4-4, to act on various saccharides. Substrate solutions were prepared by dissolving D-glucose, D-xylose, D-allose, D-ribose, D-galactose, D-fructose, D-mannose, D-psicose, D-tagatose, L-sorbose, L-rhamnose, L-ribose, trehalose, kojibiose, nigerose, isomaltose, neotrehalose, gentiobiose, lactose, sucrose, maltulose, palatinose, maltose, maltotriose, maltotetraose, maltopentaose, maltohexaose, maltoheptaose, cellobiose, cellotriose, cellotetraose, selaginose, isomaltosyl-glucoside, isomaltotriose, panose, isopanose, erlose, maltitol, maltotriitol, methyl-α-glucoside, methyl-β-glucoside, D-glucosamine, D-galactosamine, D-glucuronic acid, N-acetyl-glucosamine, or N-acetyl-galactosamine into MOPS buffer (pH 8.0) to give a final concentration of 2% (w/w) of saccharide and 40 mM buffer.
Then, each of the resulting substrate solutions was further admixed with 500 units/g-substrate, on a dry solid basis, of the purified preparation of recombinant cellobiose 2-epimerase, obtained by the method in Experiment 4-4, and followed by the enzyme reaction at 60° C. for 24 hours. After stopping the reaction by heating the reaction mixture at 100° C. for 10 minutes, each reaction mixture was subjected to TLC analysis under the conditions in Experiment 1-2 to examine the saccharides in each mixture before and after the reaction. The substrate specificity of the enzyme was judged by investigating whether the spot of the reaction product except for the substrate is detected in the TLC chromatogram or not, and the degree of the strength of the visualized spot.

[2] = test system: recombinant cellobiose 2-epimerase; assay: Formation of isomerized saccharides from various saccharides, effect of the amount of enzyme; format: biochemical, Caldicellulosiruptor saccharolyticus ATCC43494
Description: Each of them was dissolved into 20 mM acetate buffer (pH 6.0), admixed with the purified preparation of the recombinant cellobiose 2-epimerase, obtained by the method in Experiment 4-4, and followed the enzyme reaction under the conditions of 10% (w/v) substrate concentration, 60° C. for 72 hours. The amount of enzyme was set to 130 or 500 units/g-substrate when monosaccharide was used as the substrate, and to 1 or 130 units/g-substrate when disaccharide or trisaccharide was used as the substrate. Each reaction mixture was heated at 100° C. for 10 minutes to stop the reaction and subjected to HPLC analysis to determine the contents of isomerized saccharide, on a dry solid basis. The contents of epilactose and lactulose in the reaction mixture obtained using lactose as substrate were determined by GC analysis described in Experiment 1-2.

[3] = 500 units/g-substrate, 10% (w/v) substrate, pH 6.0, 60° C., 72 hours
[4] = 130 units/g-substrate, 10% (w/v) substrate, pH 6.0, 60° C., 72 hours
[5] = 1 unit/g-substrate, 10% (w/v) substrate, pH 6.0, 60° C., 72 hours

| Molecule | Action [1] | also measured |
| --- | --- | --- |
| O=C(CO)[C@H](O)[C@H](O)[C@H](O)CO [D-Psicose] | − |  |
| OC[C@H]1O[C@@](CO)(O[C@H]2O[C@H](CO)[C@@H](O[C@H]3O[C@H](CO)[C@@H](O)[C@H](O)[C@H]3O)[C@H](O)[C@H]2O)[C@@H](O)[C@@H]1O [Erlose] | − |  |
| O=C[C@H](O)[C@H](O)[C@H](O)CO [D-Ribose] | − |  |
| O=C[C@H](O)[C@@H](O)[C@H](O)CO [D-Xylose] | − |  |
| Maltoheptaose | ± | Action of the enzyme on the saccharide [1]: slightly acted on |
| OC[C@H]1O[C@H](O[C@H]2O[C@H](CO)[C@@H](O)[C@H](O)[C@H]2O)[C@H](O)[C@@H](O)[C@@H]1O [Trehalose] | − |  |
| O=C[C@H](O)[C@H](O)[C@H](O)[C@H](O)CO [D-Allose] | − |  |
| O=C[C@@H](O)[C@@H](O)[C@@H](O)[C@H](O)CO [D-Talose] |  | Content of isomerized saccharide in the reaction mixture (%): D-Galactose [2, 3]: 27.2%; Content of isomerized saccharide in the reaction mixture (%): D-Tagatose [2, 3]: 17.9% |
| OC[C@H]1O[C@H](O[C@H]2O[C@H](CO)[C@@H](O)[C@H](O)[C@H]2O[C@H]2O[C@H](CO)[C@@H](O)[C@H](O)[C@H]2O)[C@H](O)[C@@H](O)[C@@H]1O [Selaginose] | − |  |
| Maltopentaose | ± | Action of the enzyme on the saccharide [1]: slightly acted on |
| N[C@H]1C(O)O[C@H](CO)[C@@H](O)[C@@H]1O (stereo partly drawn) [D-Glucosamine] | − |  |
| OC[C@H]1O[C@H](O[C@H]2[C@H](O)[C@@H](CO)OC(O)[C@@H]2O)[C@H](O)[C@@H](O)[C@@H]1O (stereo partly shown) [Nigerose] | − |  |
| CO[C@H]1O[C@H](CO)[C@@H](O)[C@H](O)[C@H]1O [Methyl-α-glucoside] | − |  |
| OC[C@H]1O[C@H](OC[C@H]2O[C@H](O)[C@H](O)[C@@H](O)[C@@H]2O)[C@H](O)[C@@H](O)[C@H]1O [Gentibiose] | − |  |
| O=C(CO)[C@@H](O)[C@H](O)[C@H](O)CO [D-Fructose] | ± | Action of the enzyme on the saccharide [1]: slightly acted on; Content of isomerized saccharide in the reaction mixture (%): D-Glucose [2, 4]: 2.2%; Content of isomerized saccharide in the reaction mixture (%): D-Mannose [2, 4]: 2.2% |
| CC(=O)N[C@H]1C(O)O[C@H](CO)[C@H](O)[C@@H]1O (stereo partly shown) [N-Acetyl-galactosamine] | − |  |
| OC[C@H]1O[C@@H](O[C@H]2[C@H](O)[C@@H](O)[C@H](O[C@H]3[C@H](O)[C@@H](O)C(O)O[C@@H]3CO)O[C@@H]2CO)[C@H](O)[C@@H](O)[C@@H]1O (stereo partly shown) [Cellotriose] | ++ | Action of the enzyme on the saccharide [1]: relatively strong specificity |
| CO[C@@H]1O[C@H](CO)[C@@H](O)[C@H](O)[C@H]1O [Methyl-β-glucoside] | − |  |
| OC[C@H]1O[C@@H](O[C@H]2[C@H](O)[C@@H](O)[C@H](O[C@H]3[C@H](O)[C@@H](O)[C@H](O[C@H]4[C@H](O)[C@@H](O)C(O)O[C@@H]4CO)O[C@@H]3CO)O[C@@H]2CO)[C@H](O)[C@@H](O)[C@@H]1O (stereo partly shown) [Cellotetraose] | ++ | Action of the enzyme on the saccharide [1]: relatively strong specificity |
| OC[C@H]1O[C@@H](O[C@H]2O[C@H](CO)[C@@H](O)[C@H](O)[C@H]2O)[C@H](O)[C@@H](O)[C@@H]1O [Neotrehalose] | − |  |
| O=C(CO)[C@@H](O)[C@H](O)[C@@H](O)CO [L-Sorbose] | − |  |

| Molecule | Action [1] | also measured |
| --- | --- | --- |
| N[C@H]1C(O)O[C@H](CO)[C@H](O)[C@@H]1O (stereo partly drawn) [D-Galactosamine] | − |  |
| OC[C@H]1O[C@H](OC[C@H]2O[C@H](OC[C@H]3OC(O)[C@H](O)[C@@H](O)[C@@H]3O)[C@H](O)[C@@H](O)[C@@H]2O)[C@H](O)[C@@H](O)[C@@H]1O (stereo partly shown) [Isomaltotriose] | − |  |
| OC[C@H]1O[C@H](OC[C@H]2O[C@H](O[C@H]3[C@H](O)[C@@H](O)C(O)O[C@@H]3CO)[C@H](O)[C@@H](O)[C@@H]2O)[C@H](O)[C@@H](O)[C@@H]1O (stereo partly shown) [Panose] | − |  |
| OC[C@H]1O[C@H](O[C@H]2C(O)O[C@H](CO)[C@@H](O)[C@@H]2O)[C@H](O)[C@@H](O)[C@@H]1O (stereo partly shown) [Kojibiose] | − |  |
| OC[C@H]1O[C@H](O[C@H]2[C@H](O)[C@@H](O)[C@H](O)O[C@@H]2CO)[C@H](O)[C@@H](O)[C@@H]1O [Maltose] | + | Action of the enzyme on the saccharide [1]: acted on; Content of isomerized saccharide in the reaction mixture (%): Epimaltose [2, 4]: 22.2%; Content of isomerized saccharide in the reaction mixture (%): Maltulose [2, 4]: 7.7% |
| Isomaltosyl-glucoside | − |  |
| O=C[C@@H](O)[C@@H](O)[C@@H](O)CO [L-Ribose] | − |  |
| OC[C@H]1O[C@H](O[C@H]2[C@H](O)[C@@H](O)[C@@H](OC[C@H]3OC(O)[C@H](O)[C@@H](O)[C@@H]3O)O[C@@H]2CO)[C@H](O)[C@@H](O)[C@@H]1O (stereo partly shown) [Isopanose] | − |  |
| Maltulose | ± | Action of the enzyme on the saccharide [1]: slightly acted on |
| OC[C@@H](O)[C@@H](O[C@H]1O[C@H](CO)[C@@H](O[C@H]2O[C@H](CO)[C@@H](O)[C@H](O)[C@H]2O)[C@H](O)[C@H]1O)[C@H](O)[C@@H](O)CO [Maltotriitol] | − |  |
| OC[C@H]1O[C@H](O[C@H]2[C@H](O)[C@@H](O)[C@@H](O[C@H]3[C@H](O)[C@@H](O)[C@@H](O[C@H]4[C@H](O)[C@@H](O)C(O)O[C@@H]4CO)O[C@@H]3CO)O[C@@H]2CO)[C@H](O)[C@@H](O)[C@@H]1O (stereo partly shown) [Maltotetraose] | ± | Action of the enzyme on the saccharide [1]: slightly acted on |
| O=C[C@H](O)[C@@H](O)[C@H](O[C@@H]1O[C@H](CO)[C@@H](O)[C@H](O)[C@H]1O)[C@H](O)CO [Cellobiose] | ++ | Action of the enzyme on the saccharide [1]: relatively strong specificity; Content of isomerized saccharide in the reaction mixture (%): Cellobiulose [2, 5]: 1.7%; Content of isomerized saccharide in the reaction mixture (%): Epicellobiose [2, 5]: 27.8%; Content of isomerized saccharide in the reaction mixture (%): Cellobiulose [2, 4]: 53.2%; Content of isomerized saccharide in the reaction mixture (%): Epicellobiose [2, 4]: 13.4%; Action of the enzyme on the substrate ([2]; summary of Table 5): relatively specifically acted |
| Maltotriose | + | Action of the enzyme on the saccharide [1]: acted on; Content of isomerized saccharide in the reaction mixture (%): Epimaltotriose [2, 4]: 23.3% |
| OC[C@H]1O[C@H](OC[C@H]2OC(O)[C@H](O)[C@@H](O)[C@@H]2O)[C@H](O)[C@@H](O)[C@@H]1O (stereo partly shown) [Isomaltose] | − |  |
| C[C@H](O)[C@H](O)[C@@H](O)[C@@H](O)C=O [L-Rhamnose] | − |  |
| Maltohexaose | ± | Action of the enzyme on the saccharide [1]: slightly acted on |
| OC[C@H]1O[C@@](CO)(O[C@H]2O[C@H](CO)[C@@H](O)[C@H](O)[C@H]2O)[C@@H](O)[C@@H]1O [Sucrose] | − |  |
| OC[C@@H](O)[C@@H](O[C@H]1O[C@H](CO)[C@@H](O)[C@H](O)[C@H]1O)[C@H](O)[C@@H](O)CO [Maltitol] | − |  |
| OC[C@H]1O[C@H](OC[C@H]2OC(O)(CO)[C@@H](O)[C@@H]2O)[C@H](O)[C@@H](O)[C@@H]1O (stereo partly shown) [Palatinose] | − |  |
| CC(=O)N[C@H]1C(O)O[C@H](CO)[C@@H](O)[C@@H]1O (stereo partly shown) [N-Acetyl-glucosamine] | − |  |
| O=C[C@H](O)[C@@H](O)[C@H](O)[C@H](O)C(=O)O [D-Glucuronic acid] | − |  |
